Key:
[1] = Example 2: safety in subjects infected with HIV-1; type: in vivo, human
Method: Safety: Adverse events, vital signs, electrocardiogram, ophthalmologic examination, and clinical laboratory tests were evaluated for safety. Safety: The proportion of subjects with adverse events was summarized by treatment, system organ class and preferred term for treatment-emergent adverse events, treatment-related adverse events, serious adverse events, and adverse events leading to study drug discontinuation. Adverse events were coded using the Medical Dictionary for Regulatory Activities (MedDRA®) version 8.1. […] Laboratory results were expressed on the original measurement scale and in terms of the toxicity grade. Changes from baseline in quantitative laboratory tests were summarized by visit.

HIV-1 = experiment: Example 2: exposure-response (Emax model) and inhibitory quotient; type: in vivo; conditions: simple Emax model on Ctau
[2] = 200 mg of Compound 1 twice-daily, 6 subjects

COc1cc2c(cc1Cc1cccc(Cl)c1F)c(=O)c(C(=O)O)cn2[C@H](CO)C(C)C [Compound 1, 6-(3-chloro-2-fluorobenzyl)-1-[(2S)-1-hydroxy-3-methylbutan-2-yl]-7-methoxy-4-oxo-1,4-dihydroquinoline-3-carboxylic acid]
Subjects with treatment-emergent Grade 3 or 4 laboratory abnormalities ([1]; 50 mg of Compound 1+RTV once-daily, 6 subjects): 1 subject
Subjects with treatment-related fatigue [1, 2]: 2 subjects
Subjects with treatment-related nausea [1, 2]: 2 subjects
Subjects with treatment-emergent Grade 3 or 4 laboratory abnormalities ([1]; 400 mg of Compound 1 twice-daily, 6 subjects): 1 subject
Tolerability ([1]; all dose levels, 10 days, HIV-1 infected subjects): generally well tolerated
Emax (HIV-1): 2.32 log10 copies/mL reduction from baseline

From patent publication US20070219243A1, “Method for improving the pharmacokinetics of HIV integrase inhibitors” (priority 2005, published 2007)
